The target of experiment [1] is T1, Kappa-type opioid receptor (Homo sapiens, UniProt P41145). As to the kind of experiment: Binding affinity to kappa opioid receptor.
The target in a further experiment is Mu-type opioid receptor (Homo sapiens, UniProt P35372). Kind of experiment: Binding affinity to mu opioid receptor.
Experiment [2] has as its target T1, Kappa-type opioid receptor. As to the kind of experiment: Agonist activity at kappa opioid receptor in a [35S]GTP-gamma-S functional assay. (In general: GTPγS is a poorly hydrolysed GTP analogue; its binding reports G protein activation.)
In experiment [3] the target is Opioid receptors; mu & kappa (Homo sapiens) (UniProt P41145+P35372). As to the kind of experiment: Selectivity for kappa opioid receptor over mu opioid receptor. It counts as protein assay.
Experiment [4] deals with Opioid receptors; delta & kappa (Homo sapiens) (UniProt P41145+P41143). As to the kind of experiment: Selectivity for kappa opioid receptor over delta opioid receptor. It counts as protein assay.
For the next experiment, the target named is Cytochrome P450 2D6 (Homo sapiens, UniProt P10635). Kind of experiment: Inhibitory activity against CYP2D6. It counts as ADME.
A further experiment relates to Mus musculus. Kind of experiment: Inhibition of acetic acid-induced writhing in mice after sc administration. It counts as functional. (In general: In writhing tests, fewer writhes than in controls are read as antinociception.)
The species named for the next experiment is Rattus norvegicus. As to the kind of experiment: Antinociception in rat at 300 ug given intrapaw in late phase formalin-induced flinching assay. It counts as functional.

The values that follow come from ChEMBL document CHEMBL1149423, “Novel phenylamino acetamide derivatives as potent and selective kappa opioid receptor agonists” (Bioorg Med Chem Lett, 2006).

pEC50, pIC50, pKi: −log10 of the molar value. Some results are limits rather than exact numbers.

Opioid receptors; delta & kappa (Homo sapiens), sequence (P41143 whole entry, looked up): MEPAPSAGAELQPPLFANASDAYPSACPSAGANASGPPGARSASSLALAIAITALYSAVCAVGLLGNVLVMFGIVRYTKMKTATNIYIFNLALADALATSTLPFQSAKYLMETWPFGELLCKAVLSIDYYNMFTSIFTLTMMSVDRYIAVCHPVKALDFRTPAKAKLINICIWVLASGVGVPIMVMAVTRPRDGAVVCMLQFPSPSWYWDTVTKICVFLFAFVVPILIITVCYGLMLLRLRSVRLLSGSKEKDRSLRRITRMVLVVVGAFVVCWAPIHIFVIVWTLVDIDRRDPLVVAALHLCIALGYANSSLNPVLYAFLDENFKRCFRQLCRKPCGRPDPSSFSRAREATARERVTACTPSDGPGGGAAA
Opioid receptors; delta & kappa (Homo sapiens), sequence (P41145 whole entry, looked up): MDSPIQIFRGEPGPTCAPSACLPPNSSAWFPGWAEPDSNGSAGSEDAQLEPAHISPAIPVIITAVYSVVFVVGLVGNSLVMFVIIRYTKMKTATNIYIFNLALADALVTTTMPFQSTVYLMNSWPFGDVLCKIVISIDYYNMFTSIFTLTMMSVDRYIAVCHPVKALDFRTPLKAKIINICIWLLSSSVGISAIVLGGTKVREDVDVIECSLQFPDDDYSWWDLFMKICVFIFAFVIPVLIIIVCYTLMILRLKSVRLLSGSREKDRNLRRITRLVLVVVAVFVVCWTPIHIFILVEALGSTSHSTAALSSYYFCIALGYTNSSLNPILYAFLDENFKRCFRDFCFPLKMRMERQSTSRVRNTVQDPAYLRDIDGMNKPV
Opioid receptors; mu & kappa (Homo sapiens), sequence (P35372 whole entry, looked up): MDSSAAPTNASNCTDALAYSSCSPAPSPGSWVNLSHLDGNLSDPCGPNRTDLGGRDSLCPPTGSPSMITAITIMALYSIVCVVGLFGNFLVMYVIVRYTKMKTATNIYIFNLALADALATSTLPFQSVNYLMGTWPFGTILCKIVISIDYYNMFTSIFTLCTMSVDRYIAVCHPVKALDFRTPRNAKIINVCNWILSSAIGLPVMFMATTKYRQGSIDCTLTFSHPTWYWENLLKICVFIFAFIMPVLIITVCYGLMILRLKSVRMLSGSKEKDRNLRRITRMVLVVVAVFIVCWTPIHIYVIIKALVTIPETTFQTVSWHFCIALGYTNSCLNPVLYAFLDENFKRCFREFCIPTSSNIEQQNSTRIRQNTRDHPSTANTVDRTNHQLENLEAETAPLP
Opioid receptors; mu & kappa (Homo sapiens), sequence (P41145 whole entry, looked up): as the sequence (P41145 whole entry, looked up) above
T1 sequence (P41145 whole entry): as the sequence (P41145 whole entry, looked up) above
Cytochrome P450 2D6, sequence (P10635 whole entry): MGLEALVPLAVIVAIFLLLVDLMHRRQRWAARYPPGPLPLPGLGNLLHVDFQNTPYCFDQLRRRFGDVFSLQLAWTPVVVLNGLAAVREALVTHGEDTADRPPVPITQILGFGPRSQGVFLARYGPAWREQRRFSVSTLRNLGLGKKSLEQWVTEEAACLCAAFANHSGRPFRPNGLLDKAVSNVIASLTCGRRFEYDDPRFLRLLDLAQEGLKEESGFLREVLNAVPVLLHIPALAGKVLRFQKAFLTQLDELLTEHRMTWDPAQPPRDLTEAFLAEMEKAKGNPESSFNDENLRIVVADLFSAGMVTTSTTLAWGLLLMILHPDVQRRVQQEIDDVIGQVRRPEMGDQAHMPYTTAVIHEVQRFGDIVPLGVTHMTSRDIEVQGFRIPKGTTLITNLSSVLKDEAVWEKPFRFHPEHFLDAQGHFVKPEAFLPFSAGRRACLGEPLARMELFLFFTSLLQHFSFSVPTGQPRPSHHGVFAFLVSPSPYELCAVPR
Mu-type opioid receptor, sequence (P35372 whole entry): as the sequence (P35372 whole entry, looked up) above

What is called pKi is the negative decadic logarithm of the Ki, by convention in mol/L. Read a high pKi as a low Ki. One may read the pEC50 as −log10 of the EC50, conventionally taken in molar units. For the compound `CN(C(=O)CNc1ccc(NS(C)(=O)=O)cc1)[C@H](CN1CC[C@H](O)C1)c1ccccc1`, the pKi is 8.24 in experiment [1] and under 5.30 at Mu-type opioid receptor. Also, the pEC50 in experiment [2] is 7.85. The Ratio in experiment [3] is over 877; in experiment [4], 47.

For orientation: pIC50 means −log10 of the IC50, conventionally taken in molar units. Read a high pIC50 as a low IC50. The compound `CN(C(=O)CNc1ccc(Cl)c(Cl)c1)[C@H](CN1CC[C@H](O)C1)c1ccccc1` showed a pIC50 against Cytochrome P450 2D6 of 6.12. Also, the pKi in experiment [1] was 9.96. This compound also showed a pEC50 in experiment [2] of 9.57. Besides, the Ratio in experiment [3] is 427; in experiment [4] it was 91.

With `CN(CC(=O)N(C)[C@H](CN1CC[C@H](O)C1)c1ccccc1)c1ccccc1`, the pIC50 at Cytochrome P450 2D6 was 6.28. This compound gave a pKi in experiment [1] of 9.49. The compound also had a pEC50 in experiment [2] of 9.64. In addition, the Ratio worked out at 1660 in experiment [3] and 169 in experiment [4].

Take `CC(=O)N(CC(=O)N(C)[C@H](CN1CC[C@H](O)C1)c1ccccc1)c1ccccc1`: the negative-log IC50 (pIC50) at Cytochrome P450 2D6 was 6.52. The pKi in experiment [1] was 8.42; at Mu-type opioid receptor it was under 5.30. In experiment [2], this compound showed a pEC50 of 8.13. In addition, the Ratio is over 1320 in experiment [3] and 342 in experiment [4].

As to `CN(C(=O)CNc1ccc(C(F)(F)F)cc1)[C@H](CN1CC[C@H](O)C1)c1ccccc1`, the negative logarithm of the IC50 (pIC50) at Cytochrome P450 2D6 is 6.72. Also, the pKi in experiment [1] is 9.41. The compound also showed a pEC50 in experiment [2] of 9.10. Also, the Ratio turned out to be 385 in experiment [3] and 256 in experiment [4].

Turning to `CN(C(=O)CNc1ccc(CNS(C)(=O)=O)cc1)[C@H](CN1CC[C@H](O)C1)c1ccccc1`, the pIC50 against Cytochrome P450 2D6 is 5.10. Moreover, the pKi in experiment [1] was 7.80. The pEC50 in experiment [2] is 7.62. Further, the Ratio in experiment [3] was 81; in experiment [4] it was 119.

Compound `CN(CC(=O)N(C)[C@H](CN1CC[C@H](O)C1)c1ccccc1)c1ccc(C#N)cc1` showed a negative logarithm of the IC50 (pIC50) at Cytochrome P450 2D6 of 6.17. This compound also had a negative logarithm of the Ki (pKi) in experiment [1] of 9.00. Besides, in experiment [2], the pEC50 is 8.64. Also, the Ratio in experiment [3] is 250; in experiment [4], 180.

`CN(C(=O)CNc1cccc(C#N)c1)[C@H](CN1CC[C@H](O)C1)c1ccccc1` showed a pIC50 on Cytochrome P450 2D6 of 5.52. Also, the pKi in experiment [1] is 9.30. The compound also had a pEC50 in experiment [2] of 9.24. Also, the results for the Ratio in experiment [3] and in experiment [4] were 1140 and 66, respectively.

`CN(C(=O)CNc1ccccc1CNS(C)(=O)=O)[C@H](CN1CC[C@H](O)C1)c1ccccc1` had a pIC50 against Cytochrome P450 2D6 of 5.82. Further, the pKi in experiment [1] was 9.11. This compound also gave a pEC50 in experiment [2] of 9.28. In addition, the Ratio in experiment [3] came out at 85; in experiment [4], 10.

`CN(C(=O)CNc1ccc(C#N)cc1)[C@H](CN1CC[C@H](O)C1)c1ccccc1` gave a pIC50 against Cytochrome P450 2D6 of 5.60. Also, the pKi in experiment [1] is 9.18. The pEC50 in experiment [2] is 9.31. Further, the results for the Ratio in experiment [3] and in experiment [4] were 833 and 409, respectively.

One may read the ED50 as the midpoint of the dose-response relation. A lower ED50 goes with greater potency. Regarding `CN(C(=O)CNc1ccccc1)[C@H](CN1CC[C@H](O)C1)c1ccccc1`, the ED50 with Mus musculus was determined as 0.017 mg/kg. The compound further showed a pIC50 on Cytochrome P450 2D6 of 5.39. Further, the Activity in the experiment listed under Rattus norvegicus is recorded as 96.2%. In addition, the Ratio is 5880 in experiment [3] and 512 in experiment [4].

At Cytochrome P450 2D6, `CN(C(=O)CNc1ccccc1C#N)[C@H](CN1CC[C@H](O)C1)c1ccccc1` had a pIC50 of 6.29. In experiment [1], the pKi is 9.41. Besides, in experiment [2], the pEC50 is 9.38. Further, the Ratio worked out at 667 in experiment [3] and 49 in experiment [4].

`CN(C(=O)CNc1cccc(CNS(C)(=O)=O)c1)[C@H](CN1CC[C@H](O)C1)c1ccccc1`: the pIC50 against Cytochrome P450 2D6 was 5.06. Moreover, the negative logarithm of the Ki (pKi) in experiment [1] was 8.41. This compound showed a pEC50 in experiment [2] of 8.32. The Ratio in experiment [3] and in experiment [4] was 38 each time.

Compound `CCCS(=O)(=O)Nc1ccc(NCC(=O)N(C)[C@H](CN2CC[C@H](O)C2)c2ccccc2)cc1` gave a pIC50 against Cytochrome P450 2D6 of 5.05. Further, the pKi in experiment [1] was 8.82. The compound also showed a pEC50 in experiment [2] of 8.08. The Ratio came to 1000 in experiment [3] and 87 in experiment [4].

On Cytochrome P450 2D6, `CN(C(=O)CNc1ccc([N+](=O)[O-])cc1)[C@H](CN1CC[C@H](O)C1)c1ccccc1` had a pIC50 of 5.47. Further, in experiment [1], the pKi was 9.68. In experiment [2], this compound had a negative-log EC50 (pEC50) of 9.64. In addition, the Ratio in experiment [3] was found to be 905; in experiment [4] it was 119.
